Experimental data from patent US6833456B2, “Indolyl-urea derivatives of thienopyridines useful as antiangiogenic agents, and methods for their use” (Agouron Pharmaceuticals, Inc., priority 2002, dated 2004).
“And” between values parts separate entries of the source, which are not always exact repeats. Identical values can stand only once.

Assays:
HUVEC = assay: bFGF HUVEC proliferation; format: cell-based, human; conditions: bFGF stimulated HUVEC
KDR (VEGFR2) = molecular target: T1, KDR (VEGFR2) (Homo sapiens, UniProt P35968); assay: KDR (VEGFR2) phosphorylation in PAE-KDR cells assay; format: cell-based; conditions: PAE cells overexpressing human KDR, VEGF stimulated; read-out: PAE KDR autophos IC50
T1 construct: expressed in transfected cells; host or cells: porcine aorta endothelial (PAE) cells
How it was run: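 PAE cells overexpressing human KDR, serum-starved 16 h (0.1% FBS), treated with compound 1 h at 37° C (0.5% DMSO), then stimulated 8 min with 500 ng/ml VEGF plus 2 mM Na3VO4. Lysate KDR phosphotyrosine measured by capture ELISA (anti-pY HRP, 450 nm); IC50 by four-parameter fit.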

[1] = molecular target: T2, unphosphorylated VEGF-R2Δ50 (FLVK) (Homo sapiens, UniProt P35968, DEL940-989/E990V); assay: VEGF-R2 coupled spectrophotometric assay, unphosphorylated construct (FLVK); format: biochemical; conditions: for inhibition at 0.05 µM: percent inhibition at 50 nM
T2 construct: VEGF-R2Δ50 contains residues 806-939 and 990-1171; made in house; host or cells: baculovirus/insect cell system
How it was run: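 Continuous coupled assay (PEP, PK, LDH; NADH loss at 340 nm) in 200 mM HEPES pH 7.5 with 3 mM ATP, 20 mM poly(E4Y1), 60 mM MgCl2 plus 2 mM MnCl2, started with 5-40 nM non-autophosphorylated VEGF-R2Δ50. Ki values from activity across compound concentrations, Morrison fit.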

T2 sequence (P35968 with tags, fused parts or gaps DEL940-989/E990V limits assumed): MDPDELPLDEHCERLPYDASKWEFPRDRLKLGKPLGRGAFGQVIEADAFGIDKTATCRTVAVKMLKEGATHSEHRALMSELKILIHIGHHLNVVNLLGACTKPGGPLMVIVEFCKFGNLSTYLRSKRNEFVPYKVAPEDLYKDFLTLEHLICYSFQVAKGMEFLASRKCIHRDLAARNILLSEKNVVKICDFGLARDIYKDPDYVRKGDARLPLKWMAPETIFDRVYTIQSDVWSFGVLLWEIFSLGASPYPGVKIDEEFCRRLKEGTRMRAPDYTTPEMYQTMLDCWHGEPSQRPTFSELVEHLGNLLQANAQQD
T1 sequence (P35968 20-1356): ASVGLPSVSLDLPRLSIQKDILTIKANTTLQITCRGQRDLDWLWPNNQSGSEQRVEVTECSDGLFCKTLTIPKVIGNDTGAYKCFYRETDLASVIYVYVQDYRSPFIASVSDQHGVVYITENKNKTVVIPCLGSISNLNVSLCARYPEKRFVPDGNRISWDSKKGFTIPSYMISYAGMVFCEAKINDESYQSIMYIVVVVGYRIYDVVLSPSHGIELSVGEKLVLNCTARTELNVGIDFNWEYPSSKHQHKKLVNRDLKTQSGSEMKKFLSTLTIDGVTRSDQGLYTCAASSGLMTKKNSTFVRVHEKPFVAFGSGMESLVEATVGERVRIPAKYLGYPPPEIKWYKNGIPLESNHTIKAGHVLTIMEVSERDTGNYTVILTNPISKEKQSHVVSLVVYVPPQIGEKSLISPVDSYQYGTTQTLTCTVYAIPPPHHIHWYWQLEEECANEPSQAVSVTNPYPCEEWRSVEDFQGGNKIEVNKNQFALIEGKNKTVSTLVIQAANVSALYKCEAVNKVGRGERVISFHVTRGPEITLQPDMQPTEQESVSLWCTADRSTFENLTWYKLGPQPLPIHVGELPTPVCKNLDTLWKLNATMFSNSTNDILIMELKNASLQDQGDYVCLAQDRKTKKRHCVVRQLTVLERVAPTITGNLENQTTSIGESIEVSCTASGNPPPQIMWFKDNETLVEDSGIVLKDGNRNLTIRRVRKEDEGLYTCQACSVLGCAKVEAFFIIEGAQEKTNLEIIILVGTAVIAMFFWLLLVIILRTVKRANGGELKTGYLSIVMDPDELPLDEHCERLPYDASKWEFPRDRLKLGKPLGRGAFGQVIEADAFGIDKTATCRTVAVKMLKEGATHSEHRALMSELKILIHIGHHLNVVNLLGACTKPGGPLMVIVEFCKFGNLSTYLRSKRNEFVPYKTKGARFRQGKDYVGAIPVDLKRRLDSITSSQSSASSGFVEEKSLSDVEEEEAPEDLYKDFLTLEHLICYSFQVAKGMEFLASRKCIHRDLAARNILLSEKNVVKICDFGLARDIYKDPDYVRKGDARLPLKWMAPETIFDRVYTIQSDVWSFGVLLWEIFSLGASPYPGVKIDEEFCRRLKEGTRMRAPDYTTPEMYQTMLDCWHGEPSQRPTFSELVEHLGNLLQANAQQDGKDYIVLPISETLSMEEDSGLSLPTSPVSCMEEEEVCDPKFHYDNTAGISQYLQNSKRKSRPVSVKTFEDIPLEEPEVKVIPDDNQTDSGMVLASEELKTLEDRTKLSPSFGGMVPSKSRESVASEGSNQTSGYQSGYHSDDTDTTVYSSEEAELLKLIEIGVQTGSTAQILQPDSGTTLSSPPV

Compound | IC50 (HUVEC; Homo sapiens, HUVEC) [nM] | IC50 (KDR (VEGFR2)) | Ki [1] [nM] | inhibition at 0.05 µM [1] [%] | IC50 (HUVEC)
Cc1cc2cc(Nc3ccnc4cc(C(=O)N5CC[C@H](O)C5)sc34)ccc2n1C(=O)NC1CC1 [Example 1k, 5-[2-(3S-Hydroxy-pyrrolidine-1-carbonyl)-thieno[3,2-b]pyridin-7-ylamino]-2-methyl-indole-1-carboxylic acid cyclopropylamide] | 26.6 | 2.1 nM and 5.4 nM and 4.74 nM | 0.63 | 97 | –
CNC(=O)n1c(C)cc2cc(Nc3ccnc4cc(C(=O)N5CC[C@@H](O)C5)sc34)ccc21 [Example 1n, 5-[2-(3R-Hydroxy-pyrrolidine-1-carbonyl)-thieno[3,2-b]pyridin-7-ylamino]-2-methyl-indole-1-carboxylic acid methylamide] | 30.2 | 4.01 nM and 2.77 nM | – | 94 | 19.4 nM
C#CCNC(=O)n1c(C)cc2cc(Nc3ccnc4cc(C(=O)N5CC[C@@H](O)C5)sc34)ccc21 [Example 1o, 5-[2-(3R-Hydroxy-pyrrolidine-1-carbonyl)-thieno[3,2-b]pyridin-7-ylamino]-2-methyl-indole-1-carboxylic acid prop-2-ynylamide] | 49.6 | 1.6 nM | 0.37 | 96 | 52 nM
COC[C@@H]1CCCN1C(=O)c1cc2nccc(Nc3ccc4c(c3)cc(C)n4C(=O)NC3CC3)c2s1 [Example 2c, 5-(2-[(S)-2-(methoxymethyl)pyrrolidine-1-carbonyl]thieno[3,2-b]pyridin-7-ylamino)-2-methylindole-1-carboxylic acid cyclopropylamide] | 41 | 0.67 nM and 0.42 nM (2×) | 0.56 | 97 | 27 nM and 33 nM and 24 nM and 40 nM
Cc1cc2cc(Nc3ccnc4cc(C(=O)N5CCC[C@H]5CO)sc34)ccc2n1C(=O)NC1CC1 [Example 2e, 5-(2-[(S)-2-(hydroxymethyl)pyrrolidine-1-carbonyl]thieno[3,2-b]pyridin-7-ylamino)-2-methylindole-1-carboxylic acid cyclopropylamide] | 27.8 | 1.32 nM and 1.38 nM | 0.16 | 95 | 31.6 nM
CCOC(=O)c1csc(-c2cc3nccc(Nc4ccc5c(c4)cc(C)n5C(=O)NC)c3s2)n1 [Example 3c, 2-[7-(2-Methyl-1-methylcarbamoyl-1H-indol-5-ylamino)-thieno[3,2-b]pyridin-2-yl]-thiazole-4-carboxylic acid ethyl ester] | 184 | 0.1 nM and 0.041 nM | 0.79 | 81 | 262 nM
CNC(=O)n1c(C)cc2cc(Nc3cccc4cc(C(=O)N5C[C@H](OC)C[C@H]5CO)sc34)ccc21 [Example 3f, 5-[2-((2S,4R)-2-Hydroxymethyl-4-methoxy-pyrrolidine-1-carbonyl)-benzo[b]thiophen-7-ylamino]-2-methyl-indole-1-carboxylic acid methylamide] | 2050 | 1.85 nM | 10.5 | 57 | –
CO[C@@H]1C[C@@H](CO)N(C(=O)c2cc3cccc(Nc4ccc5c(c4)cc(C)n5C(=O)NC4CC4)c3s2)C1 [Example 3g, 5-[2-((2S,4R)-2-Hydroxymethyl-4-methoxy-pyrrolidine-1-carbonyl)-benzo[b]thiophen-7-ylamino]-2-methyl-indole-1-carboxylic acid cyclopropylamide] | 656 | 2.6 nM | 1.12 | 95 | –
CNC(=O)n1c(C)cc2cc(Oc3ccnc4cc(C(=O)N5C[C@H](OC)C[C@H]5CO)sc34)ccc21 [Example 3o, 5-[2-(2-Hydroxymethyl-4-methoxy-pyrrolidine-1-carbonyl)-thieno[3,2-b]pyridin-7-yloxy]-2-methyl-indole-1-carboxylic acid methylamide] | 246 | 0.43 nM and 0.52 nM | 1.35 | 93 | –
COC[C@@H]1CCCN1C(=O)c1cc2nccc(Oc3ccc4c(c3)cc(C)n4C(=O)NC3CC3)c2s1 [Example 4b, 5-(2-[(S)-2-(methoxymethyl)pyrrolidine-1-carbonyl]thieno[3,2-b]pyridin-7-yloxy)-2-methylindole-1-carboxylic acid cyclopropylamide] | 11.7 | 0.21 nM (2×) and 0.25 nM | 0.13 | 97 | –
CNC(=O)n1c(C)cc2cc(Oc3ccnc4cc(C(=O)N5CC[C@@H](OC)C5)sc34)ccc21 [Example 4j, 5-[2-(3R-Methoxy-pyrrolidine-1-carbonyl)-thieno[3,2-b]pyridin-7-yloxy]-2-methyl-indole-1-carboxylic acid methylamide] | 2.5 | 0.86 nM and 0.35 nM and 0.34 nM | 0.121 | 96 | 4.7 nM
C#CCNC(=O)n1c(C)cc2cc(Oc3ccnc4cc(C(=O)N5CC[C@@H](O)C5)sc34)ccc21 [Example 4o, 5-[2-(3R-Hydroxy-pyrrolidine-1-carbonyl)-thieno[3,2-b]pyridin-7-yloxy]-2-methyl-indole-1-carboxylic acid prop-2-ynylamide] | 7.9 | 0.012 nM and 0.009 nM | 0.63 | 97 | –
CNC(=O)n1c(C)cc2c(F)c(Oc3ccnc4cc(C(=O)N5CCC[C@H]5CO)sc34)ccc21 [Example 5n, 4-Fluoro-5-[(2-{[(2S)-2-(hydroxymethyl)pyrrolidin-1-yl]carbonyl}thieno[3,2-b]pyridin-7-yl)oxy]-N,2-dimethyl-1H-indole-1-carboxamide] | 93 | 0.28 nM and 0.5 nM and 0.53 nM | 0.12 | 100 | –
C#CCNC(=O)n1c(C)cc2cc(Oc3ccnc4cc(C(=O)N5CCC[C@@H]5CO)sc34)ccc21 [Example 8q, 5-[2-(2R-Hydroxymethyl-pyrrolidine-1-carbonyl)-thieno[3,2-b]pyridin-7-yloxy]-2-methyl-indole-1-carboxylic acid prop-2-ynylamide] | 95 | 0.45 nM and 0.19 nM | 0.286 | 97 | –
CNC(=O)n1c(C)cc2cc(Oc3ccnc4cc(C(=O)N5CC[C@H](O)C5)sc34)ccc21 [Example 9g, 5-[2-(3S-Hydroxy-pyrrolidine-1-carbonyl)-thieno[3,2-b]pyridin-7-yloxy]-2-methyl-indole-1-carboxylic acid methylamide] | 45 | 0.29 nM and 0.86 nM and 0.34 nM | 0.243 | 98 | 40 nM
CCCNC(=O)n1c(C)cc2cc(Oc3ccnc4cc(C(=O)N5CC[C@H](O)C5)sc34)ccc21 [Example 9i, 5-[2-(3S-Hydroxy-pyrrolidine-1-carbonyl)-thieno[3,2-b]pyridin-7-yloxy]-2-methyl-indole-1-carboxylic acid propylamide] | 5 | 0.33 nM | 0.245 | 98 | –
Cc1cc2cc(Oc3ccnc4cc(C(=O)N5CC[C@H](O)C5)sc34)ccc2n1C(=O)NCCCO [Example 9l, 5-[2-(3S-Hydroxy-pyrrolidine-1-carbonyl)-thieno[3,2-b]pyridin-7-yloxy]-2-methyl-indole-1-carboxylic acid (3-hydroxy-propyl)-amide] | 37.6 | 0.76 nM and 0.51 nM | 0.327 | 97 | –
